Structures are written as SMILES. The source made the active and inactive calls. No rule for the calls is given here.

This assay has as its system Broad 7084-01 inhibitor HTS, set 2. The assay is described as follows: inhibitors in Broad screen 7084-01, set 2 (AID 977613).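 Also: host cells are infected with parasite promastigotes that become internalized.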

`O=C(C1CCC1)N1CC2(C1)[C@H](c1ccccc1)[C@H](CO)N2C(=O)c1ccccn1`: the active concentration was > 10 µM (inactive).

In the case of `O=C(C[C@H]1CC[C@H]2[C@@H](COC[C@H](O)CN2C(=O)c2cccnc2)O1)NCc1ccccc1`, the active concentration was > 10 µM (inactive).

In the case of `COc1ccc2c3c(n(C)c2c1)[C@@H](CO)N(C(=O)C1CC1)CC31CCN(Cc2cccc(F)c2)CC1`, the active concentration was > 10 µM (inactive).

In the case of `CCCNC(=O)N1CC2(CCN(C(=O)c3cccc(F)c3)CC2)c2c([nH]c3cc(OC)ccc23)[C@H]1CO`, the active concentration was > 10 µM (inactive).

As to `O=S(=O)(c1ccc(F)cc1)N1CCCCN2[C@H](CO)[C@H](c3ccc(-c4cncnc4)cc3)[C@H]2C1`, the active concentration was > 10 µM (inactive).

`C/C=C/c1ccc([C@@H]2[C@@H](CO)N(C(=O)C3CCOCC3)C23CN(C(=O)NC(C)C)C3)cc1`: the active concentration is > 10 µM (inactive).

For the compound `COc1ccc2c3c([nH]c2c1)[C@@H](CO)N(C(=O)Nc1c(C)noc1C)CC31CN(CC2CCOCC2)C1`, the active concentration is > 10 µM (inactive).

Regarding `COc1ccc2c3c([nH]c2c1)[C@H](CO)N(CC1CC1)CC31CN(C(=O)c2ccc(F)cc2)C1`, the active concentration is > 10 µM (inactive).

For `CS(=O)(=O)N1C[C@H](O)COC[C@@H]2O[C@@H](CC(=O)NCc3ccc(-c4ccccc4)cc3)CC[C@H]21`, the active concentration is > 10 µM (inactive).

As for `O=C(Nc1ccc(F)cc1)N1[C@@H]2CNc3ccccc3[C@@H]2[C@@H]1CO`, the active concentration was > 10 µM (inactive).

`O=C(C[C@@H]1CC[C@H]2[C@@H](COC[C@@H](O)CN2C(=O)c2ccc(F)cc2)O1)NCc1cccc(F)c1`: the active concentration was > 10 µM (inactive).

For `COc1ccc2c3c([nH]c2c1)[C@@H](CO)N(Cc1ccccc1F)CC31CN(CC2CC2)C1`, the active concentration was > 10 µM (inactive).

As to `CN1C(=O)c2cc(NC(=O)c3ccc(F)c(F)c3)ccc2OC[C@H]2O[C@@H](CC(=O)N[C@@H]3CCN(Cc4ccccc4)C3)CC[C@H]21`, the active concentration is > 10 µM (inactive).

`COc1ccc2c3c([nH]c2c1)[C@@H](CO)N(C(=O)CN(C)C)CC31CCN(Cc2cncnc2)CC1`: the active concentration is > 10 µM (inactive).

Regarding `O=C(Nc1ccc(-c2ccccc2)cc1)[C@@H]1[C@@H](CO)[C@@H]2Cn3c(cccc3=O)[C@H]1N2Cc1ccncc1`, the active concentration was > 10 µM (inactive).

Take `CS(=O)(=O)N1C[C@@H](O)COC[C@@H]2O[C@H](CC(=O)NCc3ccc(-c4ccccc4)cc3)CC[C@H]21`: the active concentration was > 10 µM (inactive).

Regarding `CCC(=O)N1C[C@H]2[C@@H](c3ccccc31)[C@H](CO)N2C(=O)CC`, the active concentration was > 10 µM (inactive).

Turning to `Cc1ccccc1-c1ccc([C@@H]2[C@@H](CO)N3CCCCN(S(=O)(=O)Cc4ccccc4)C[C@H]23)cc1`, the active concentration was > 10 µM (inactive).

As to `CC(C)(O)C#Cc1ccc([C@H]2[C@@H](CO)N3CCCCN(S(C)(=O)=O)C[C@@H]23)cc1`, the active concentration was > 10 µM (inactive).

As for `O=C(C[C@@H]1CC[C@@H]2[C@H](COC[C@@H](O)CN2Cc2ccc3c(c2)OCO3)O1)Nc1ccccc1`, the active concentration was > 10 µM (inactive).

With `COc1cccc(CN2CC3(CN(C)C3)c3c([nH]c4cc(OC)ccc34)[C@H]2CO)c1`, the active concentration is > 10 µM (inactive).

Turning to `COC(=O)c1ccc(CN2CC(=O)N3[C@@H](CO)[C@H](c4ccc(-c5cccnc5)cc4)[C@@H]3C2)cc1`, the active concentration was > 10 µM (inactive).

Regarding `COCC(=O)N1[C@@H]2c3ccc(/C=C/c4ccccc4)c(=O)n3C[C@H]1[C@H](CO)[C@H]2C(=O)N1CCOCC1`, the active concentration was > 10 µM (inactive).

With `CCNC(=O)[C@H]1[C@H](CO)[C@H]2Cn3c(ccc(-c4ccccc4)c3=O)[C@H]2N1CC`, the active concentration was > 10 µM (inactive).

Consider `COc1cccc(-c2ccc3c(c2)[C@H]2[C@H](CCN2S(=O)(=O)c2ccccc2C)[C@H](CO)N3)c1`, for which the active concentration was > 10 µM (inactive).

With `OC[C@@H]1Nc2ccc(-c3ccccc3)cc2[C@H]2[C@@H]1CCN2Cc1ccccc1F`, the active concentration is > 10 µM (inactive).

For `COc1ccccc1-c1ccc2n(c1=O)C[C@H]1[C@H](CO)[C@@H](C(=O)N3CCOCC3)[C@@H]2N1CC1CC1`, the active concentration is > 10 µM (inactive).

Take `COc1ccc2c3c([nH]c2c1)[C@@H](CO)N(S(C)(=O)=O)CC31CN(CC2CCOCC2)C1`: the active concentration was > 10 µM (inactive).

In the case of `O=S(=O)(c1cccs1)N1CCCCN2[C@H](CO)[C@@H](c3ccc(/C=C/c4ccccc4)cc3)[C@@H]2C1`, the active concentration was > 10 µM (inactive).

As to `OC[C@H]1[C@@H](c2ccc(-c3ccccc3F)cc2)[C@H]2CN(Cc3cncnc3)CCCCN21`, the active concentration is > 10 µM (inactive).

As for `O=C(Cc1ccccn1)N1[C@H](CO)[C@@H]2c3ccccc3NC[C@@H]21`, the active concentration was > 10 µM (inactive).

For the compound `O=C(c1cccnc1)N1CC[C@@H]2[C@@H](CO)Nc3ccc(C4=CCCCC4)cc3[C@@H]21`, the active concentration is > 10 µM (inactive).

Take `C[C@H](O)C#Cc1ccc([C@H]2[C@@H](CO)N3CCCCN(C(=O)c4ccc5c(c4)OCO5)C[C@H]23)cc1`: the active concentration is > 10 µM (inactive).

In the case of `O=C(NCC1CCCCC1)[C@@H]1[C@@H](CO)[C@@H]2Cn3c(ccc(-c4cncnc4)c3=O)[C@H]1N2`, the active concentration was > 10 µM (inactive).

For the compound `CN1C(=O)c2cc(NC(=O)Cc3cccs3)ccc2OC[C@@H]2O[C@@H](CC(=O)N[C@@H]3CCN(Cc4ccccc4)C3)CC[C@H]21`, the active concentration is > 10 µM (inactive).

In the case of `COc1ccc(NC(=O)N2CC[C@@H]3[C@H]2c2cc(Br)ccc2N(C)[C@H]3CO)cc1`, the active concentration is > 10 µM (inactive).

As to `O=C(C[C@H]1CC[C@H]2[C@@H](COC[C@@H](O)CN2S(=O)(=O)c2cccc(F)c2)O1)Nc1ccc(-c2ccccc2)cc1`, the active concentration was > 10 µM (inactive).

For the compound `O=C(C[C@H]1CC[C@@H]2[C@H](COC[C@@H](O)CN2S(=O)(=O)c2ccc(F)cc2)O1)NCC1CC1`, the active concentration is > 10 µM (inactive).

`N#Cc1cccc(-c2ccc3c(c2)[C@@H]2[C@@H](CCN2S(=O)(=O)c2ccc(F)cc2)[C@H](CO)N3)c1`: the active concentration is > 10 µM (inactive).

Take `CC(C)CC#Cc1ccc([C@H]2[C@@H](CO)N3C(=O)CN(S(=O)(=O)c4cccc(F)c4)C[C@@H]23)cc1`: the active concentration is > 10 µM (inactive).

On to `CN1C(=O)c2cc(NC(=O)c3cccc(F)c3)ccc2OC[C@H]2O[C@H](CC(=O)NCC3CCCCC3)CC[C@@H]21`, for which the active concentration is > 10 µM (inactive).

Consider `CC(C)CC#Cc1ccc([C@H]2[C@@H](CO)N3C(=O)CN(C(=O)c4ccccn4)C[C@@H]23)cc1`, for which the active concentration is > 10 µM (inactive).

As for `O=C(CC1CC1)N1CC(=O)N2[C@@H](CO)[C@H](c3ccc(C#Cc4cccc(F)c4)cc3)[C@@H]2C1`, the active concentration is > 10 µM (inactive).

`C/C=C/c1ccc([C@@H]2[C@@H](CO)N3C(=O)CN(C(=O)c4ccncc4)C[C@H]23)cc1`: the active concentration was > 10 µM (inactive).

On to `O=C(NCC(F)(F)F)[C@@H]1[C@@H](CO)[C@@H]2Cn3c(cccc3=O)[C@H]1N2CC1CCOCC1`, for which the active concentration is > 10 µM (inactive).

Take `COc1ccc2c3c([nH]c2c1)[C@H](CO)N(C)CC31CCN(C(=O)c2ccccc2F)CC1`: the active concentration was > 10 µM (inactive).

With `CN(C)CCCNC(=O)C[C@H]1CC[C@H]2[C@@H](COC[C@@H](O)CN2CC2CC2)O1`, the active concentration was > 10 µM (inactive).

Turning to `CC(=O)N1[C@H](C(=O)NCc2ccccc2Cl)[C@@H](CO)[C@@H]2Cn3c(ccc(-c4cncnc4)c3=O)[C@@H]21`, the active concentration is > 10 µM (inactive).

As to `O=C(C[C@@H]1CC[C@H]2[C@@H](COC[C@H](O)CN2Cc2ccccc2)O1)NCCc1ccccc1`, the active concentration is > 10 µM (inactive).

As to `OC[C@@H]1[C@H](c2ccccc2)C2(CN(Cc3nccs3)C2)N1CCC(F)(F)F`, the active concentration is > 10 µM (inactive).

For `O=C(CN1CCOCC1)N1CC(=O)N2[C@H](CO)[C@@H](c3ccc(-c4cccc(F)c4)cc3)[C@@H]2C1`, the active concentration is > 10 µM (inactive).

As for `Cn1cnc(CCNC(=O)C[C@@H]2CC[C@H]3[C@@H](COC[C@H](O)CN3C(=O)C3CC3)O2)c1`, the active concentration is > 10 µM (inactive).

For the compound `COc1ccc2c3c([nH]c2c1)[C@@H](CO)N(C(=O)Nc1ccc(F)cc1)CC31CN(C(=O)c2ccccc2F)C1`, the active concentration is > 10 µM (inactive).

Regarding `CN1C[C@@H]2[C@H](c3ccccc31)[C@@H](CO)N2C(=O)Nc1cccc(F)c1`, the active concentration was > 10 µM (inactive).

For the compound `CCCN1[C@@H]2c3ccc(-c4cncnc4)c(=O)n3C[C@@H]2[C@@H](CO)[C@@H]1C(=O)OC`, the active concentration is > 10 µM (inactive).

For `C/C=C/c1ccc([C@@H]2[C@H](CO)N(CC3CC3)C23CN(C(=O)c2ccc4c(c2)OCO4)C3)cc1`, the active concentration is > 10 µM (inactive).

In the case of `OC[C@@H]1[C@@H]2c3ccccc3NC[C@@H]2N1CC1CCOCC1`, the active concentration was > 10 µM (inactive).

With `Cc1noc(C)c1NC(=O)N1C[C@@H](O)COC[C@@H]2O[C@H](CC(=O)NCC3CCCCC3)CC[C@H]21`, the active concentration is > 10 µM (inactive).

Turning to `O=C(C[C@@H]1CC[C@@H]2[C@H](COC[C@H](O)CN2CCC(F)(F)F)O1)NCC1CC1`, the active concentration is > 10 µM (inactive).

`CCC(=O)N1CC2(CN(C(C)=O)C2)c2c([nH]c3cc(OC)ccc23)[C@@H]1CO`: the active concentration was > 10 µM (inactive).

For `COc1ccccc1CNC(=O)C[C@@H]1CC[C@H]2[C@@H](COC[C@@H](O)CN2C(=O)Nc2ccccc2)O1`, the active concentration is > 10 µM (inactive).

In the case of `OC[C@@H]1[C@H]2c3ccccc3NC[C@H]2N1CC1CCOCC1`, the active concentration is > 10 µM (inactive).

Consider `C[C@H](NC(=O)[C@@H]1[C@@H](CO)[C@@H]2Cn3c(cccc3=O)[C@H]1N2CCC(F)(F)F)c1ccccc1`, for which the active concentration is > 10 µM (inactive).

With `CN1C(=O)c2cc(NS(C)(=O)=O)ccc2OC[C@H]2O[C@H](CC(=O)N3CCOCC3)CC[C@H]21`, the active concentration was > 10 µM (inactive).

(Values after PubChem BioAssay AID977613 (Broad Institute, 2014).)
